In patent US8778982B2, “Synergistic microbicidal compositions” (Rohm and Haas Company, priority 2007, dated 2014):

Key:
Type in all cases: cell-based
Conditions in all cases: for SI / Qa: A = MIT; for Qa: A alone where Qb = 0
[1] = test system: Escherichia coli (E. coli—ATCC #8739); experiment: Synergy test, microtiter plate high resolution MIC assay, M9GY medium, bacterium
Excerpt: (§1) One measure of synergism is the industrially accepted method described by Kull, F. C.; Eisman, P. C.; Sylwestrowicz, H. D. and Mayer, R. L., in Applied Microbiology 9:538-541 (1961), using the ratio determined by the formula: Qa/QA+Qb/QB=Synergy Index(“SI”) wherein: • QA=concentration of compound A (first component) in ppm, acting alone, which produced an end point (MIC of Compound A). • Qa=concentration of compound A in ppm, in the mixture, which produced an end point. • QB=concentration of compound B (second component) in ppm, acting alone, which produced an end point (MIC of Compound B). • Qb=concentration of compound B in ppm, in the mixture, which produced an end point.
(§2) When the sum of Qa/QA and Qb/QB is greater than one, antagonism is indicated. […] The lower the SI, the greater is the synergy shown by that particular mixture. The minimum inhibitory concentration (MIC) of a microbicide is the lowest concentration tested under a specific set of conditions that prevents the growth of the tested microorganisms.
(§3) Synergy tests were conducted using standard microtiter plate assays with media designed for optimal growth of the test microorganism. Minimal salt medium supplemented with 0.2% glucose and 0.1% yeast extract (M9GY medium) was used for testing bacteria; Potato Dextrose Broth (PDB medium) was used for testing yeast and mold. In this method, a wide range of combinations of microbicides and other personal care raw materials was tested by conducting high resolution MIC assays in the presence of various concentrations of CMIT/MIT, MIT, or BIT. High resolution MICs were determined by adding varying amounts of microbicide to one column of a microtitre plate and doing subsequent […] dilutions using an automated liquid handling system to obtain a series of endpoints ranging from 2 ppm to 10,000 ppm active ingredient.
(§4) The synergy of the combinations of the present invention was determined against a bacterium, Escherichia coli (E. coli—ATCC #8739), a yeast, Candida albicans (C. albicans—ATCC 10231), and a mold, Aspergillus niger (A. niger—ATCC 16404). The bacteria were used at a concentration of about 5×10^6 bacteria per mL and the yeast and mold at 5×10^5 fungi per mL. These microorganisms are representative of natural contaminants in many consumer and industrial applications. […] (yeast and mold) or 30° C. (bacteria).

[2] = test system: Aspergillus niger (A. niger—ATCC 16404); experiment: Synergy test, microtiter plate high resolution MIC assay, PDB medium, mold
Excerpt: as §1, §2, §3, §4

[3] = test system: Candida albicans (C. albicans—ATCC 10231); experiment: Synergy test, microtiter plate high resolution MIC assay, PDB medium, yeast
Excerpt: as §1, §2, §3, §4

[4] = E. coli 8739 - M9GY (1 day), B = Glyceryl caprate
[5] = E. coli 8739 - M9GY (1 day), B = Glyceryl mono dicaprylate
[6] = E. coli 8739 - M9GY (1 day), B = Lauric arginate
[7] = E. coli 8739 - M9GY (1 day), B = Myristamidopropyl PG-dimonium chloride phosphate
[8] = E. coli 8739 - M9GY (1 day), B = Propylene glycol caprylate
[9] = E. coli 8739 - M9GY (1 day), B = Propylene glycol monolaurate
[10] = E. coli 8739 - M9GY (6 days), B = Ethylhexylglycerin
[11] = A. niger 16404 - PDB (3 days), B = Myristamidopropyl PG-dimonium chloride phosphate
[12] = A. niger 16404 - PDB (3 days), B = Propylene glycol caprylate
[13] = A. niger 16404 - PDB (10 days), B = Ethylhexylglycerin
[14] = A. niger 16404 - PDB (10 days), B = Glyceryl caprate
[15] = A. niger 16404 - PDB (10 days), B = Glyceryl mono dicaprylate
[16] = A. niger 16404 - PDB (10 days), B = Lauric arginate
[17] = A. niger 16404 - PDB (10 days), B = Propylene glycol monolaurate
[18] = C. albicans 10231 - PDB (1 day), B = Propylene glycol monolaurate
[19] = C. albicans 10231 - PDB (2 days), B = Glyceryl mono dicaprylate
[20] = C. albicans 10231 - PDB (6 days), B = Ethylhexylglycerin
[21] = C. albicans 10231 - PDB (6 days), B = Glyceryl caprate
[22] = C. albicans 10231 - PDB (6 days), B = Lauric arginate
[23] = C. albicans 10231 - PDB (6 days), B = Myristamidopropyl PG-dimonium chloride phosphate
[24] = C. albicans 10231 - PDB (6 days), B = Propylene glycol caprylate

## Cn1sccc1=O [MIT, 2-methyl-4-isothiazolin-3-one]
[1]; E. coli 8739, M9GY, 1 day
  Synergy Index (SI) = Qa/QA+Qb/QB: 1.00
[1]; E. coli 8739, M9GY, 1 day, 30° C.
  MIC of the component acting alone (QA or QB): 30.00 ppm
[1]; [4]
  SI: 1.00
  Qa: 30.00 ppm
[1]; [5]
  SI: 1.00
  Qa: 30.00 ppm
[1]; [6]
  SI: 1.00
  Qa: 30.00 ppm
[1]; [7]
  SI: 1.00
  Qa: 30.00 ppm
[1]; [8]
  SI: 1.00
  Qa: 30.00 ppm
[1]; [9]
  SI: 1.00
  Qa: 30.00 ppm
[1]; [10]
  SI: 1.00
  Qa: 40.00 ppm
[1]; Escherichia coli, ATCC8739, 24 h, read-out: MIC of the component acting alone (QA or QB)
  MIC: 30 µg/mL
[2]; A. niger 16404, PDB, 10 days
  Synergy Index (SI) = Qa/QA+Qb/QB: 1.00
[2]; A. niger 16404, PDB, 10 days, 25° C.
  MIC of the component acting alone (QA or QB): 500.00 ppm
[2]; [11]
  SI: 1.00
  Qa: 400 ppm
[2]; [12]
  SI: 1.00
  Qa: 400 ppm
[2]; [13]
  SI: 1.00
  Qa: 750 ppm
[2]; [14]
  SI: 1.00
  Qa: 500 ppm
[2]; [15]
  SI: 1.00
  Qa: 500 ppm
[2]; [16]
  SI: 1.00
  Qa: 750 ppm
[2]; [17]
  SI: 1.00
  Qa: 750.00 ppm
[2]; Aspergillus niger, ATCC16404, 240 h, read-out: MIC of the component acting alone (QA or QB)
  MIC: 500 µg/mL
[3]; C. albicans 10231, PDB, 6 days
  Synergy Index (SI) = Qa/QA+Qb/QB: 1.00
[3]; C. albicans 10231, PDB, 6 days, 25° C.
  MIC of the component acting alone (QA or QB): 200.00 ppm
[3]; [18]
  SI: 1.00
  Qa: 100.00 ppm
[3]; [19]
  SI: 1.00
  Qa: 150.00 ppm
[3]; [20]
  SI: 1.00
  Qa: 200.00 ppm
[3]; [21]
  SI: 1.00
  Qa: 200.00 ppm
[3]; [22]
  SI: 1.00
  Qa: 200.00 ppm
[3]; [23]
  SI: 1.00
  Qa: 200.00 ppm
[3]; [24]
  SI: 1.00
  Qa: 200.00 ppm
[3]; Candida albicans, ATCC10231, 144 h, read-out: MIC of the component acting alone (QA or QB)
  MIC: 200 µg/mL
